Assay results as given in ChEMBL document CHEMBL1201862, “PubChem BioAssay data set” (2004).
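Cultured in 96-well plates, cells were exposed to test compound for 48 hours across five concentrations. The concentration for 50% growth inhibition is given as GI50.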 Activity calls are given as the source filed them. No stated cut-off is given here; in the data, active = GI50 up to about 1.1 µM and inactive = higher.

Key:
Experiment in all cases: inhibition of tumour cell growth, NCI panel, 48 h
SK-MEL-5 = test system: SK-MEL-5
CCRF-CEM = test system: CCRF-CEM
KM12 = test system: KM12
A549 = test system: A549
U-251 = test system: U-251
SF-539 = test system: SF-539
NCI-H522 = test system: NCI-H522
HCT-116 = test system: HCT-116
COLO 205 = test system: COLO 205
Malme-3M = test system: Malme-3M
OVCAR-3 = test system: OVCAR-3
A498 = test system: A498
786-0 = test system: 786-0
UO-31 = test system: UO-31
M14 = test system: M14
NCI-H460 = test system: NCI-H460
SK-MEL-28 = test system: SK-MEL-28
TK-10 = test system: TK-10
OVCAR-5 = test system: OVCAR-5
HCT-15 = test system: HCT-15
LXFL 529 = test system: LXFL 529
K562 = test system: K562
HOP-18 = test system: HOP-18
NCI-H226 = test system: NCI-H226
OVCAR-4 = test system: OVCAR-4
XF498 = test system: XF498
SK-OV-3 = test system: SK-OV-3
IGROV-1 = test system: IGROV-1
RPMI-8226 = test system: RPMI-8226
UACC-257 = test system: UACC-257
KM-20L2 = test system: KM-20L2
HOP-62 = test system: HOP-62
HL-60 = test system: HL-60
HT-29 = test system: HT-29
SNB-78 = test system: SNB-78
CAKI-1 = test system: CAKI-1
SK-MEL-2 = test system: SK-MEL-2
M19-MEL = test system: M19-MEL
OVCAR-8 = test system: OVCAR-8
LOX IMVI = test system: LOX IMVI
RXF 393 = test system: RXF 393
EKVX = test system: EKVX
SF-295 = test system: SF-295
RXF 631 = test system: RXF 631
SW-620 = test system: SW-620
SNB-19 = test system: SNB-19
HOP-92 = test system: HOP-92
SF-268 = test system: SF-268
NCI-H23 = test system: NCI-H23
SN12C = test system: SN12C
SNB-75 = test system: SNB-75
UACC-62 = test system: UACC-62
HCC 2998 = test system: HCC 2998
DMS-114 = test system: DMS-114
MOLT-4 = test system: MOLT-4
ACHN = test system: ACHN
DMS-273 = test system: DMS-273
DLD-1 = test system: DLD-1

Cc1nc(C(N)=S)sc1C(=O)/C=C/c1c(O)ccc2ccccc12
GI50 (SK-MEL-5): 32.4 µM (inactive)
GI50 (CCRF-CEM): 21.6 µM (inactive)
GI50 (KM12): 31.3 µM (inactive)
GI50 (A549): > 100 µM (inactive)
GI50 (U-251): > 100 µM (inactive)
GI50 (SF-539): 70.1 µM (inactive)
GI50 (NCI-H522): 26.9 µM (inactive)
GI50 (HCT-116): 80.2 µM (inactive)
GI50 (COLO 205): > 100 µM (inactive)
GI50 (Malme-3M): > 90.2 µM (inactive)
GI50 (OVCAR-3): 36.6 µM (inactive)
GI50 (A498): > 100 µM (inactive)
GI50 (786-0): > 74.3 µM (inactive)
GI50 (UO-31): 58.2 µM (inactive)
GI50 (M14): > 100 µM (inactive)
GI50 (NCI-H460): > 100 µM (inactive)
GI50 (SK-MEL-28): > 71.6 µM (inactive)
GI50 (TK-10): > 100 µM (inactive)
GI50 (OVCAR-5): > 100 µM (inactive)
GI50 (HCT-15): > 95.9 µM
GI50 (LXFL 529): 30 µM (inactive)
GI50 (K562): 25.9 µM (inactive)
GI50 (HOP-18): > 100 µM (inactive)
GI50 (NCI-H226): > 100 µM (inactive)
GI50 (OVCAR-4): > 100 µM (inactive)
GI50 (XF498): > 100 µM (inactive)
GI50 (SK-OV-3): > 100 µM (inactive)
GI50 (IGROV-1): > 100 µM (inactive)
GI50 (RPMI-8226): 29.4 µM (inactive)
GI50 (UACC-257): > 75.9 µM (inactive)
GI50 (KM-20L2): > 100 µM (inactive)
GI50 (HOP-62): > 100 µM (inactive)
GI50 (HL-60): 22.1 µM (inactive)
GI50 (HT-29): > 100 µM (inactive)
GI50 (SNB-78): > 100 µM (inactive)
GI50 (CAKI-1): > 87.5 µM (inactive)
GI50 (SK-MEL-2): > 100 µM (inactive)
GI50 (M19-MEL): 13.8 µM (inactive)
GI50 (OVCAR-8): 68.5 µM (inactive)
GI50 (LOX IMVI): 26 µM (inactive)
GI50 (RXF 393): 31.8 µM (inactive)
GI50 (EKVX): > 100 µM (inactive)
GI50 (SF-295): 51.5 µM (inactive)
GI50 (RXF 631): > 100 µM (inactive)
GI50 (SW-620): 39.4 µM (inactive)
GI50 (SNB-19): > 100 µM (inactive)
GI50 (HOP-92): > 74.1 µM (inactive)
GI50 (SF-268): 28.5 µM (inactive)
GI50 (NCI-H23): > 67.5 µM (inactive)
GI50 (SN12C): > 88.1 µM (inactive)
GI50 (SNB-75): 53.7 µM (inactive)
GI50 (UACC-62): 29.6 µM (inactive)
GI50 (HCC 2998): > 100 µM (inactive)
GI50 (DMS-114): 32.5 µM (inactive)
GI50 (MOLT-4): 21.2 µM (inactive)
GI50 (ACHN): > 100 µM (inactive)
GI50 (DMS-273): > 100 µM (inactive)
GI50 (DLD-1): 72.4 µM (inactive)
